Some test systems named below: HT29 colon; SN12C renal; KM12 colon; LOX IMVI melanoma; RXF 393 renal; IGROV1 ovarian; NCI-H23 lung; UO-31 renal; UACC-257 melanoma; NCI-H522 lung.
Common to all, as to test: NCI tumour cell line growth inhibition, 48 h

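1) Cells in 96-well plates. 2) Compound, 48 h, 5 concentrations. 3) Linear interpolation between surrounding doses. 4) Unreached endpoint = highest concentration. GI50 is the concentration that inhibits growth by half. TGI marks complete inhibition of growth.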

13 molecules from PubChem BioAssay (NCI) can be followed below.

As to `Oc1ccccc1CNCC12CC3CC(CC(C3)C1)C2`, the GI50 with HT29 colon is 15.2 µM; with SN12C renal, 32.6 µM; in the experiment on KM12 colon, 23.7 µM; in the experiment on LOX IMVI melanoma it was 20.6 µM; with RXF 393 renal it was 16.7 µM; with IGROV1 ovarian, 41.8 µM. Besides, the results for the GI50 in the experiment on NCI-H23 lung and with UO-31 renal were 32.4 µM and 20.3 µM, respectively. Also, the TGI in the experiment on HT29 colon is 47.7 µM; with SN12C renal it was more than 100 µM; in the experiment with KM12 colon, 66 µM; in the experiment on LOX IMVI melanoma, 76 µM; with RXF 393 renal, 40.3 µM; in the experiment with IGROV1 ovarian, more than 100 µM. In addition, the TGI in the experiment with NCI-H23 lung and in the experiment with UO-31 renal was more than 100 µM throughout.
For the molecule `CCOC(=O)/C(=C\c1cccs1)P(=O)(OCC)OCC`, the TGI with HT29 colon was 36.3 µM; in the experiment on SN12C renal it was 45.9 µM; with UACC-257 melanoma, 61 µM; in the experiment with KM12 colon, 31.4 µM; in the experiment on LOX IMVI melanoma, 37.5 µM; in the experiment on NCI-H522 lung, 28.4 µM. Also, the TGI in the experiment with RXF 393 renal worked out at 29.4 µM; with NCI-H23 lung, 35.2 µM; in the experiment on UO-31 renal, 36.1 µM.
For the molecule `COc1ccccc1C1c2cc3c(cc2OC(O)(CO)C1C(=O)O)OCO3` (stereo not drawn) (tested in a mixture with another compound), the TGI in the experiment with HT29 colon, in the experiment on SN12C renal, with UACC-257 melanoma, with KM12 colon, in the experiment on LOX IMVI melanoma and in the experiment with RXF 393 renal was more than 100 µM throughout. Also, the TGI in the experiment on IGROV1 ovarian, in the experiment with NCI-H23 lung and in the experiment on UO-31 renal was more than 100 µM each time.
For `C[C@]12CCC(=O)C(O)=C1CC[C@@H]1C2CC[C@]2(C)Nc3c(cnn3-c3ccccc3)CC12` (stereo partly drawn), the TGI with HT29 colon, in the experiment on UACC-257 melanoma, in the experiment with KM12 colon, in the experiment with RXF 393 renal, with IGROV1 ovarian and in the experiment with NCI-H23 lung was more than 100 µM each time. Also, the TGI in the experiment with UO-31 renal was more than 100 µM.
For the molecule `COc1cc(C(O)C(=O)c2nc3ccc([N+](=O)[O-])cc3[nH]c2=O)ccc1O` (stereo not drawn), the TGI in the experiment on HT29 colon, with SN12C renal, in the experiment on KM12 colon, in the experiment on LOX IMVI melanoma, in the experiment with NCI-H522 lung and in the experiment on IGROV1 ovarian was more than 100 µM each time. In addition, the TGI in the experiment with NCI-H23 lung and with UO-31 renal was more than 100 µM throughout.
With `C[N+]1(C)C/C(=C\c2ccccc2)C(=O)/C(=C/c2ccccc2)C1`, the TGI was more than 100 µM in the experiment on HT29 colon; 73.2 µM in the experiment with SN12C renal; more than 100 µM in the experiment with UACC-257 melanoma; more than 100 µM in the experiment with KM12 colon; more than 100 µM with RXF 393 renal; more than 100 µM in the experiment with IGROV1 ovarian. The TGI in the experiment with NCI-H23 lung and in the experiment with UO-31 renal was more than 100 µM each time.
Turning to `Cc1[nH]c(=O)n2c(C)nnc2c1C(=O)Nc1cc(Cl)cc(Cl)c1`, the TGI is more than 100 µM in the experiment on HT29 colon; 66.5 µM in the experiment on SN12C renal; more than 100 µM in the experiment on KM12 colon; more than 100 µM in the experiment with LOX IMVI melanoma; 28.2 µM in the experiment with NCI-H522 lung; 42 µM in the experiment with RXF 393 renal. Also, the figures for the TGI with IGROV1 ovarian, with NCI-H23 lung and in the experiment with UO-31 renal were 82 µM, 53 µM and 68.2 µM, respectively.
Turning to `CC[C@@]1(OC(=O)CN)C(=O)OCc2c1cc1n(c2=O)Cc2cc3c(N)cccc3nc2-1`, the GI50 is 0.0346 µM in the experiment on HT29 colon; less than 0.01 µM in the experiment on SN12C renal; 0.0774 µM in the experiment on UACC-257 melanoma; 0.158 µM in the experiment with KM12 colon; less than 0.01 µM with LOX IMVI melanoma; less than 0.01 µM with NCI-H522 lung. The GI50 with RXF 393 renal was 0.0352 µM; in the experiment with IGROV1 ovarian it was 0.115 µM; in the experiment on NCI-H23 lung, less than 0.01 µM. The TGI in the experiment with HT29 colon is more than 100 µM; in the experiment with SN12C renal, 1.1 µM; in the experiment on UACC-257 melanoma, 1.5 µM; in the experiment on KM12 colon, 1.92 µM; in the experiment with LOX IMVI melanoma it was 0.0486 µM; in the experiment with NCI-H522 lung it was 1.31 µM. Moreover, the TGI with RXF 393 renal is 0.476 µM; in the experiment on NCI-H23 lung, 0.0765 µM.
On to `COc1ccc(/C(=N\O)c2cc(C)c(OC)c(C)c2)cc1O`, for which the GI50 is 0.0446 µM in the experiment on HT29 colon; 0.0484 µM in the experiment with SN12C renal; less than 0.01 µM with KM12 colon; 0.0189 µM in the experiment with LOX IMVI melanoma; less than 0.01 µM in the experiment on NCI-H522 lung; less than 0.01 µM in the experiment on RXF 393 renal. Moreover, the GI50 in the experiment on IGROV1 ovarian was 0.0134 µM; with NCI-H23 lung, 0.0314 µM; in the experiment with UO-31 renal, 0.0709 µM. The TGI in the experiment with HT29 colon was 11.8 µM; in the experiment with SN12C renal it was more than 100 µM; in the experiment with KM12 colon, more than 100 µM; with LOX IMVI melanoma, more than 100 µM; in the experiment with NCI-H522 lung, 0.0101 µM; in the experiment on RXF 393 renal, more than 100 µM. Moreover, the TGI in the experiment with IGROV1 ovarian, in the experiment on NCI-H23 lung and with UO-31 renal was more than 100 µM throughout.
For `C=C1C(=O)OC2C=C(CCC(C)=O)C(C)C(OC(C)=O)CC12` (stereo not drawn), the TGI in the experiment on HT29 colon came to 27.1 µM; in the experiment with SN12C renal, 32.1 µM; in the experiment with KM12 colon, 30.5 µM; in the experiment with LOX IMVI melanoma, 3.34 µM; in the experiment with RXF 393 renal, 5.42 µM; with IGROV1 ovarian it was 43.9 µM. Further, the TGI with UO-31 renal was determined as 26.6 µM.
`Cc1c(C(=O)CC(=O)C(=O)Nc2ccc(Cl)cc2)[n+](=O)c2ccccc2n1[O-]`: the TGI in the experiment on SN12C renal, in the experiment on UACC-257 melanoma, in the experiment with KM12 colon, with NCI-H522 lung, in the experiment with IGROV1 ovarian and in the experiment with NCI-H23 lung was more than 100 µM in each case. The molecule also displayed a TGI with UO-31 renal of more than 100 µM.
As for `CC(C)(CN1CCCCC1)C(=O)/C=C/c1ccc(Cl)cc1`, the TGI in the experiment on HT29 colon turned out to be 11.7 µM; in the experiment on SN12C renal, 7.24 µM; in the experiment with UACC-257 melanoma, 19.9 µM; in the experiment on KM12 colon, 11.2 µM; with LOX IMVI melanoma it was 12.5 µM; in the experiment with NCI-H522 lung, 9.9 µM. Moreover, the TGI stood at 13.8 µM in the experiment with RXF 393 renal, 6.76 µM with NCI-H23 lung and 20.2 µM in the experiment with UO-31 renal.
On to `Fc1ccccc1C1SCc2nc3ccccc3n21` (stereo not drawn), for which the TGI in the experiment on HT29 colon, in the experiment with SN12C renal, in the experiment on UACC-257 melanoma, with KM12 colon, in the experiment with NCI-H522 lung and in the experiment on RXF 393 renal was more than 100 µM each time. Also, the TGI in the experiment with IGROV1 ovarian, in the experiment on NCI-H23 lung and in the experiment on UO-31 renal was more than 100 µM throughout.
